Assay results: PMC5316865, “Covalent assembly of nanoparticles as a peptidase-degradable platform for molecular MRI” (Nature Communications, 2017)
Peptide text beside a SMILES is read from it. * marks the point of attachment. Fmoc = O=C(OCC1c2ccccc2-c2ccccc21)*; Ahx = NCCCCCC(=O)O

Biological target: cathepsin L (Homo sapiens, UniProt P07711)
Conditions: 50 µM peptide, citrate buffer 0.1 M pH 5.5, 1 mM EDTA, 2 mM DTT, 37 °C, overnight reaction, product formation by HPLC
Experimental: Activity assay of peptides with cathepsin L.
The reaction mixture was analysed by HPLC to
detect the formation of products from the overnight reaction.
Degradation of non-fluorescent peptides by cathepsin L
A solution of cathepsin L (20 µg/mL, 24 units/L) in citrate buffer 0.1 M pH 5.5, 1 mM EDTA, 2 mM
DTT was preactivated at 25 °C for 15 minutes. A stock solution of peptide 4, 5, 6 or 7 (125 µL, 25 nmol,
0.20 mM in DMSO) was diluted in 365 µL of the assay buffer to a final concentration of 50 µM and pre-
incubated at 37 °C. 10 µL of pre-activated cathepsin L was then added to the peptide solution and
incubated with mild shaking at 37 °C. Aliquots of 100 µL were withdrawn at 0 min, 1 hour and overnight.
Samples were flash-frozen on liquid nitrogen and were heated at 100 °C for 120 seconds prior to the

cathepsin L, sequence (P07711 114-333, species assumed): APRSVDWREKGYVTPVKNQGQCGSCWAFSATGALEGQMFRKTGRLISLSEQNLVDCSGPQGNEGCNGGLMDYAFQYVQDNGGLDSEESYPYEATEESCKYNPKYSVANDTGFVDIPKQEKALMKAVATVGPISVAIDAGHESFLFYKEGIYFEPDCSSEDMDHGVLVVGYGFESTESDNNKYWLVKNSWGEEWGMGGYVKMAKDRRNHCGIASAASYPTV

CC(C)[C@H](NC(=O)[C@H](Cc1ccccc1)NC(=O)CCCCCNC(=O)CCCCCNC(=O)OCC1c2ccccc2-c2ccccc21)C(=O)N[C@@H](CCCNC(=N)N)C(=O)NCC(=O)N[C@@H](C)C(=O)NCC(=O)N[C@@H](CCC(=O)O)C(N)=O [Peptide 3, Fmoc-Ahx-Ahx-FVRGAGE] ({Fmoc-Ahx-Ahx}-FVRGAGE-NH2)
Activity assay of peptides with cathepsin L: active
